Paper PMC7436063, “Bioactive Chemical Composition of Cannabis Extracts and Cannabinoid Receptors” (Molecules, 2020)

Experiments:
CB1 = biological target: T1, CB1 (Homo sapiens, UniProt P21554); assay: cAMP assay (HitHunter), inhibition of forskolin-stimulated cAMP in CHO-K1-CB1 cells; type: cell-based
T1 construct: gene CNR1; expressed in CHO-K1-CB1 cell line (DiscoverX), cAMP reporter platform
Excerpt: cAMP assay (HitHunter), inhibition of forskolin-stimulated cAMP in CHO-K1-CB1 cells on CB1

CB2 = biological target: T2, CB2 (Homo sapiens, UniProt P34972); assay: cAMP assay (HitHunter), inhibition of forskolin-stimulated cAMP in CHO-K1-CB2 cells; type: cell-based
T2 construct: gene CNR2; expressed in CHO-K1-CB2 cell line (DiscoverX), cAMP reporter platform
T2 sequence (P34972 whole entry): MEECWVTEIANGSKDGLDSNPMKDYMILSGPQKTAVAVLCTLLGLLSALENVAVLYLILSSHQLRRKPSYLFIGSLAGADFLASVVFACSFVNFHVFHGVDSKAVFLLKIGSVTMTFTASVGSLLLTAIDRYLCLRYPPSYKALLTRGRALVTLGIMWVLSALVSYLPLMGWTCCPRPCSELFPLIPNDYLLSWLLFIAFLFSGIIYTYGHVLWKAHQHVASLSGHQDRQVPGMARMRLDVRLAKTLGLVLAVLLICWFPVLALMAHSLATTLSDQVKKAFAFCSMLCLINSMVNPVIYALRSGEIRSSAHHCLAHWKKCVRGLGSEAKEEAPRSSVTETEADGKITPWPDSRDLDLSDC
Excerpt: cAMP assay (HitHunter), inhibition of forskolin-stimulated cAMP in CHO-K1-CB2 cells on CB2

[1] = read-out: Receptor Potency (μM) / ^b IC50 (Antagonist) / CB1

T1 sequence (P21554 whole entry): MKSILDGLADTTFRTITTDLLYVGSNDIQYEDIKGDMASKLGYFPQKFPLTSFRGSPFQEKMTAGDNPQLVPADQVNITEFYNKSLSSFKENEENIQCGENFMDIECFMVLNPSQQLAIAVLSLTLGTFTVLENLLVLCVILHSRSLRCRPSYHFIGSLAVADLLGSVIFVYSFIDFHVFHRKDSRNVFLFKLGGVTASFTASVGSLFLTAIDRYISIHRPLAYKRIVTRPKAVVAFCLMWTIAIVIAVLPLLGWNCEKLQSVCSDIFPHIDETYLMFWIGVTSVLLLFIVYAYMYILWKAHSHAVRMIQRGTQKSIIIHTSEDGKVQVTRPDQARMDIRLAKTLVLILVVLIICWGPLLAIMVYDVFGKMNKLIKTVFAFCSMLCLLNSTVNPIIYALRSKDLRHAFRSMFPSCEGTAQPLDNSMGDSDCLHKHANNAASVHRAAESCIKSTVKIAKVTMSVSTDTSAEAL

C=C(C)[C@@H]1CCC(C)=C[C@H]1c1c(O)cc(CCCCC)c(C(=O)O)c1O [CBDA]
EC50 (CB1; read-out: Receptor Potency (μM) / ^a EC50 (Agonist) / CB1): 17 ± 3 µM
IC50 (CB1; [1]): > 10 µM
EC50 (CB2; read-out: Receptor Potency (μM) / ^a EC50 (Agonist) / CB2): 17 ± 4 µM
IC50 (CB2; [1]): > 10 µM
